Assay results: patent publication US8697736B2, “1H-benzimidazole-4-carboxamides substituted with phenyl at the 2-position are potent PARP inhibitors” (AbbVie Inc., priority 2005, dated 2014)

Tested on: MX-1 Breast Carcinoma Xenograft
Assay: PARP inhibitors in combination with cisplatin in an early staged MX-1 breast carcinoma xenograft model
Type: in vivo, female SCID mice
Details: average tumor volume at Day 48; PARPi 25 or 0 mg/kg/day s.c. OMP x7 from day 16 + cisplatin 6 mg/kg/day i.p. qd x1 on day 18; footnote a not given; in mm³ (unit assumed)
Description: PARP Inhibitors in Combination with Cisplatin in an Early Staged MX-1 Breast Carcinoma Xenograft Model
0.2 cc of 1:10 MX-1 tumor brei, was injected subcutaneously into the flank of female SCID mice (Charles River Labs) on study day 0. On day 15, tumors were size matched (188±25 mm^3) and the animals were placed into one of two therapy groups:
Group 1 vehicle (s.c. OMP×7)+Cisplatin 6 mg/kg/day (i.p., qd×1)
Group 2 PARPi 25 mg/kg/day (s.c. OMP×7)+Cisplatin 6 mg/kg/day (i.p., qd×1) The vehicle for both the PARP inhibitor and cisplatin was 0.9% NaCl. There were 8-10 […] in each group. Treatment with the PARPi began on day 16 while cisplatin treatment was started on day 18. At various intervals following tumor cell inoculation, the individual tumor dimensions were serially measured using calibrated microcalipers and the tumor volumes calculated according to the formula V=L×W^2/2 (V:volume, L:length, W:width). Mice were humanely euthanized when the tumor volumes reached a predetermined size.

How did the “Tumor Volume (Day 48)” value turn out when `N.N.[Cl][Pt][Cl]` [Vhl (PARPi)/Cis, Cisplatin] was run?
The value was 1389 ± 300.
